Data reported in US9951049B2, “Pyrazole linked benzimidazole conjugates and a process for preparation thereof” (Council of Scientific & Industrial Reseach, priority 2014, dated 2018).

How the values were obtained:
[1] = system: UACC-257; assay: NCI SRB screen, UACC-257; details: Homo sapiens, UACC-257, 48 h, read-out: GI50 values
[2] = system: CNS cancer cell lines; assay: NCI SRB screen, CNS panel average; details: Homo sapiens, 48 h, read-out: Log10 GI50 (converted)
[3] = system: MCF7; assay: NCI SRB screen, MCF7; details: Homo sapiens, MCF7, 48 h, read-out: GI50 values
[4] = system: NCI-H23; assay: NCI SRB screen, NCI-H23; details: Homo sapiens, NCI-H23, 48 h, read-out: GI50 values
[5] = system: COLO-205; assay: NCI SRB screen, COLO-205; details: Homo sapiens, COLO 205, 48 h, read-out: GI50 values
[6] = system: NCI-H460; assay: NCI SRB screen, NCI-H460; details: Homo sapiens, NCI-H460, 48 h, read-out: GI50 values
[7] = system: SW-620; assay: NCI SRB screen, SW-620; details: Homo sapiens, SW-620, 48 h, read-out: GI50 values
[8] = system: SN12C; assay: NCI SRB screen, SN12C; details: Homo sapiens, 48 h, read-out: GI50 values
[9] = system: Renal cancer cell lines; assay: NCI SRB screen, Renal panel average; details: Homo sapiens, 48 h, read-out: Log10 GI50 (converted)
[10] = system: SNB-75; assay: NCI SRB screen, SNB-75; details: Homo sapiens, SNB-75, 48 h, read-out: GI50 values
[11] = system: IGROV1; assay: NCI SRB screen, IGROV1; details: Homo sapiens, IGROV-1, 48 h, read-out: GI50 values
[12] = system: SF-295; assay: NCI SRB screen, SF-295; details: Homo sapiens, SF-295, 48 h, read-out: GI50 values
[13] = system: BT-549; assay: NCI SRB screen, BT-549; details: Homo sapiens, BT-549, 48 h, read-out: GI50 values
[14] = system: Colon cancer cell lines; assay: NCI SRB screen, Colon panel average; details: Homo sapiens, 48 h, read-out: Log10 GI50 (converted)
[15] = system: SK-MEL-5; assay: NCI SRB screen, SK-MEL-5; details: Homo sapiens, SK-MEL-5, 48 h, read-out: GI50 values, Melanoma, SK-MEL-5
[16] = system: NCIH322M; assay: NCI SRB screen, NCIH322M; details: Homo sapiens, NCI-H322M, 48 h, read-out: GI50 values
[17] = system: OVCAR-4; assay: NCI SRB screen, OVCAR-4; details: Homo sapiens, OVCAR-4, 48 h, read-out: GI50 values
[18] = system: MDA-MB-435; assay: NCI SRB screen, MDA-MB-435 (Melanoma panel); details: Homo sapiens, MDA-MB-435, 48 h, read-out: GI50 values
[19] = system: HCT-15; assay: NCI SRB screen, HCT-15; details: Homo sapiens, HCT-15, 48 h, read-out: GI50 values
[20] = system: UACC-62; assay: NCI SRB screen, UACC-62; details: Homo sapiens, UACC-62, 48 h, read-out: GI50 values
[21] = system: HCC-2998; assay: NCI SRB screen, HCC-2998; details: Homo sapiens, HCC 2998, 48 h, read-out: GI50 values
[22] = system: OVCAR-3; assay: NCI SRB screen, OVCAR-3; details: Homo sapiens, OVCAR-3, 48 h, read-out: GI50 values
[23] = system: Non-small-cell lung cancer cell lines; assay: NCI SRB screen, Non-small-cell lung panel average; details: Homo sapiens, 48 h, read-out: Log10 GI50 (converted)
[24] = system: SK-MEL-28; assay: NCI SRB screen, SK-MEL-28; details: Homo sapiens, SK-MEL-28, 48 h, read-out: GI50 values
[25] = system: M14; assay: NCI SRB screen, M14; details: Homo sapiens, M14, 48 h, read-out: GI50 values
[26] = system: TK-10; assay: NCI SRB screen, TK-10; details: Homo sapiens, TK-10, 48 h, read-out: GI50 values
[27] = system: SK-OV-3; assay: NCI SRB screen, SK-OV-3; details: Homo sapiens, SK-OV-3, 48 h, read-out: GI50 values
[28] = system: RPMI-8226; assay: NCI SRB screen, RPMI-8226; details: Homo sapiens, RPMI-8226, 48 h, read-out: GI50 values
[29] = system: SF-539; assay: NCI SRB screen, SF-539; details: Homo sapiens, 48 h, read-out: GI50 values
[30] = system: UO-31; assay: NCI SRB screen, UO-31; details: Homo sapiens, UO-31, 48 h, read-out: GI50 values
[31] = system: MOLT-4; assay: NCI SRB screen, MOLT-4; details: Homo sapiens, MOLT-4, 48 h, read-out: GI50 values
[32] = system: PC-3; assay: NCI SRB screen, PC-3; details: Homo sapiens, PC-3, 48 h, read-out: GI50 values

SMILES | GI50 [1] [µM] | GI50 [2] [µM] | GI50 [3] [µM] | GI50 [4] [µM] | GI50 [5] [µM] | GI50 [6] [µM] | GI50 [7] [µM] | GI50 [8] [µM] | GI50 [9] [µM] | GI50 [10] [µM] | GI50 [11] [µM] | GI50 [12] [µM] | GI50 [13] [µM] | GI50 [14] [µM] | GI50 [16] [µM] | GI50 [17] [µM] | GI50 [18] [µM] | GI50 [19] [µM] | GI50 [20] [µM] | GI50 [21] [µM] | further results
COc1cc(-c2cc(-c3nc4cc(Cl)c(Cl)cc4[nH]3)[nH]n2)cc(OC)c1OC [10f, 5,6-dichloro-2-(3-(3,4,5-trimethoxyphenyl)-1H-pyrazol-5-yl)-1H-benzo[d]imidazole] | 3.77 | 3.55 | 2.79 | 3.4 | 3.77 | 3.33 | 4.47 | 3.05 | 3.55 | 3.12 | 3.86 | 3.04 | 2.84 | 3.63 | 3.29 | 2.21 | 3.78 | 2.89 | 1.94 | 4.47 | GI50 [15]: 1.56 µM; GI50 [22]: 4.05 µM; GI50 [23]: 2.95 µM; GI50 [24]: 3.07 µM; GI50 [25]: 3.57 µM; GI50 [26]: 4.61 µM; GI50 [27]: 1.73 µM; GI50 [28]: 1.75 µM; GI50 [29]: 3.28 µM; GI50 [30]: 2.47 µM; GI50 [31]: 2.49 µM; GI50 [32]: 2.2 µM
COc1ccc2[nH]c(-c3cc(-c4cc(OC)c(OC)c(OC)c4)n[nH]3)nc2c1 [9f, 5-methoxy-2-(3-(3,4,5-trimethoxyphenyl)-1H-pyrazol-5-yl)-1H-benzo[d]imidazole] | 1.67 | 2.45 | 2.15 | 1.34 | 1.61 | 2.64 | 2.89 | 2.06 | 2.24 | 2.23 | 1.9 | 1.62 | 0.89 | 2.29 | 2.47 | 1.24 | 1.49 | 2.5 | 1.12 | 3.03 | GI50 [22]: 2.05 µM; GI50 [23]: 1.48 µM; GI50 [24]: 1.9 µM; GI50 [25]: 1.66 µM; GI50 [26]: 2.21 µM; GI50 [27]: 2.83 µM; GI50 [28]: 0.64 µM; GI50 [29]: 2.42 µM; GI50 [30]: 1.57 µM; GI50 [31]: 0.73 µM; GI50 [32]: 1.03 µM
c1ccc2[nH]c(-c3cc(-c4ccc5c(c4)OCO5)n[nH]3)nc2c1 [6g, 2-(3-(benzo[d][1,3]dioxol-5-yl)-1H-pyrazol-5-yl)-1H-benzo[d]imidazole] | 6 | 4.27 | 3.78 | 4.47 | 4.78 | 4.57 | 5.87 | 3.73 | 2.04 | 1.01 | 3.66 | 3.24 | 2.12 | 4.07 | 6.29 | 2.16 | 3.12 | 3.86 | 3.08 | 3.74 | GI50 [15]: 1.53 µM; GI50 [22]: 3.21 µM; GI50 [23]: 4.57 µM; GI50 [24]: 4.85 µM; GI50 [25]: 2.19 µM; GI50 [26]: 1.09 µM; GI50 [27]: 4.98 µM; GI50 [28]: 1.14 µM; GI50 [29]: 2.71 µM; GI50 [30]: 3.98 µM; GI50 [31]: 2.68 µM; GI50 [32]: 3.64 µM
COc1cc(-c2cc(-c3nc4cc(Cl)ccc4[nH]3)[nH]n2)cc(OC)c1OC [8f, 5-chloro-2-(3-(3,4,5-trimethoxyphenyl)-1H-pyrazol-5-yl)-1H-benzo[d]imidazole] | 2.6 | 3.72 | 2.17 | 2.73 | 3.18 | 3.65 | 4.99 | 3.06 | 3.16 | 2.71 | 3.42 | 2.35 | 2.54 | 3.98 | 3.65 | 1.38 | 3.3 | 2.9 | 1.97 | 5.98 | GI50 [15]: 1.62 µM; GI50 [22]: 3.5 µM; GI50 [23]: 2.75 µM; GI50 [24]: 2.42 µM; GI50 [25]: 2.92 µM; GI50 [26]: 3.52 µM; GI50 [27]: 4.47 µM; GI50 [28]: 1.65 µM; GI50 [29]: 4.66 µM; GI50 [30]: 2.64 µM; GI50 [31]: 2.02 µM; GI50 [32]: 2.47 µM
COc1cc(-c2cc(-c3nc4ccccc4[nH]3)[nH]n2)cc(OC)c1OC [6f, 2-(3-(3,4,5-trimethoxyphenyl)-1H-pyrazol-5-yl)-1H-benzo[d]imidazole] | 2.1 | 5.25 | 2.79 | 2.26 | 3.98 | 3.64 | 7.73 | 3.91 | 2.63 | 2.83 | 2.34 | 3.13 | 1.8 | 4.79 | 2.85 | 1.26 | 2.35 | 3.43 | 1.64 | 7.1 | GI50 [15]: 1.34 µM; GI50 [22]: 4 µM; GI50 [23]: 2.4 µM; GI50 [24]: 2.72 µM; GI50 [25]: 2.57 µM; GI50 [26]: 4.07 µM; GI50 [27]: 3.48 µM; GI50 [28]: 1.2 µM; GI50 [29]: 5.11 µM; GI50 [30]: 2.21 µM; GI50 [31]: 2.13 µM; GI50 [32]: 2.1 µM
Fc1ccc2[nH]c(-c3cc(-c4ccc5c(c4)OCO5)n[nH]3)nc2c1 [7g, 2-(3-(benzo[d][1,3]dioxol-5-yl)-1H-pyrazol-5-yl)-5-fluoro-1H-benzo[d]imidazole] | 1.02 | 6.31 | 3.53 | 8.84 | 8.11 | 6.06 | 9.34 | 4.95 | 4.57 | 2.8 | 3.67 | 4.2 | 2.16 | 5.37 | 6.88 | 1.37 | 5.43 | 3.73 | 4.77 | 5.37 | GI50 [15]: 1.46 µM; GI50 [22]: 5.32 µM; GI50 [23]: 5.37 µM; GI50 [24]: 8.87 µM; GI50 [25]: 4.17 µM; GI50 [26]: 1.3 µM; GI50 [27]: 1.24 µM; GI50 [28]: 1.09 µM; GI50 [29]: 2.9 µM; GI50 [30]: 2.93 µM; GI50 [31]: 3.14 µM; GI50 [32]: 3.78 µM
